# Assay results taken from patent publication US20260034120A1, “TREATING CANCER WITH LONG-ACTING TOPOISOMERASE I INHIBITOR” (priority 2022, published 2026).
# Experiments:
# [1] = cited from earlier work; for t½: humans, PLX038 prodrug and SN-38 released from it
# 22Rv1 ATM KO xenografts = test: PLX038A, TLZ and combination in 22Rv1 ATM KO xenografts; assay type: in vivo
# MX-1 xenografts = test: PLX038A, TLZ and combination in MX-1 xenografts; assay type: in vivo, mice; settings: PLX038A 15 μmol/kg, TLZ 0.4 μmol/kg/day
# Text: When tumors reached 170 mm^3, mice received a single intraperitoneal dose of vehicle, a single intraperitoneal dose of PLX038A (15 μmol/kg), a daily oral dose of talazoparib (0.4 μmol/kg) or a combination of PLX038A (15 μmol/kg) and daily oral TLZ (0.4 μmol/kg) starting on either day 0 (same day as PLX038A dosing) or day 4.
# [2] = test system: metastatic breast cancer with pathogenic germline ATM mutation; test: PLX038 and rucaparib in a patient with ATM deficient breast cancer (NCT04209595); assay type: in vivo, human; settings: single-agent low-dose PLX038 after rucaparib suspension at 4 months
# Protocol: A patient with metastatic breast cancer and germline ATM mutation was enrolled in the ongoing dose escalation phase of the trial. […] The patient was initially diagnosed with locally advanced invasive ductal carcinoma and was treated with neoadjuvant chemotherapy followed by surgery and radiation. Nine years later, they developed metastatic disease expressing estrogen and progesterone receptors, and was treated with multiple anti-endocrine therapies and chemotherapies including eribulin, abraxane, and carboplatin. […] At enrolment, they had skin lesions on the breast which were painful and pruritic and in addition had involvement of the lung and bones. […] The mutation results from a C to T substitution at nucleotide position 5908 and creates a premature translational stop signal which is expected to result in an absence or disrupted ATM protein. The variant was not present in population databases such as ExaC but has been reported in the literature in individuals with ataxia-telangiectasia and recognized as a founder mutation in the Costa Rican population.
Molecule,half-life ([1]; SN-38 formed from CPT-11) [h],t½ [1],"T/C3 wk (22Rv1 ATM KO xenografts; PLX038A 1.9 μmol/kg, TLZ 0.2 μmol/kg/day)","T/C3 wk (22Rv1 ATM KO xenografts; PLX038A 1.95 μmol/kg, TLZ 0.3 μmol/kg/day)","T/C3 wk (22Rv1 ATM KO xenografts; PLX038A 3.75 μmol/kg, TLZ 0.2 μmol/kg/day)","T/C3 wk (22Rv1 ATM KO xenografts; PLX038A 3.75 μmol/kg, TLZ 0.3 μmol/kg/day)","T/C3 wk (22Rv1 ATM KO xenografts; PLX038A 7.5 μmol/kg, TLZ 0.4 μmol/kg/day)",inhibition of tumor growth (22Rv1 ATM KO xenografts; TLZ QD PO 0.2 μmol/kg),inhibition of tumor growth (22Rv1 ATM KO xenografts; TLZ QD PO 0.4 μmol/kg),T/C3 wk (MX-1 xenografts),duration of sustained suppression of the tumor after treatment initiation [2] [months]
CCc1c2c(nc3ccc(O)cc13)-c1cc3c(c(=O)n1C2)COC(=O)[C@]3(O)CC [SN-38],~12,about 5 days,,,,,,,,,
"Cn1ncnc1[C@H]1c2n[nH]c(=O)c3cc(F)cc(c23)N[C@@H]1c1ccc(F)cc1 [TLZ, talazoparib]",,,0.76,0.69,0.76,0.69,0.72,insignificantly inhibitory,modestly inhibitory,0.21,
O-[7-(tetra-polyethylene glycol ether)-carboxamido-1-cyano-2-heptyl]-N-(10′-methoxy-7′-ethyl-camptothecin)-N-[4′-(diethylcarbamoyl)phenyl)]carbamate [PLX038],,about 5 days,,,,,,,,,12
